A value given as a limit tells only on which side of the number the result lay.

This test relates to PDE4. Briefly: PDE4 inhibition, scintillation proximity assay (SPA).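 Note: A below 100 nM B 100 to below 1000 nM C 1000 nM or more.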 The note with it: scintillation proximity assay (SPA); evaluated as classes A, B, C; read-out: PDE4 Inhibitory Activity (concentration for the inhibition rate of 50%). It counts as biochemical. An outline of the steps:
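Scintillation proximity read-out: [2,8-3H]-cAMP hydrolysis by PDE4 ran 120 min at room temperature in Tris-HCl pH 7.4 buffer with 8.3 mM MgCl2, 1.7 mM EGTA and 3 mg/mL BSA. Bead-bound product (YSi-SPA with ZnSO4, 15 min) counted; blank lacks enzyme, control has DMSO only.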
A general note: In a scintillation proximity assay essentially only radioactivity close to the scintillant gives light.
Consider `CC(C)(O)c1cc(-c2cscn2)c2oc(N3CC4CC(C3)N4)nc2c1OC(F)(F)F` [Example 288, 2-(2-(3,6-Diazabicyclo[3.1.1]heptan-3-yl)-7-(thiazol-4-yl)-4-(trifluoromethoxy)benzo[d]oxazol-5-yl)propan-2-ol], for which the IC50 was less than 100 nM.

As for `CC(C)(O)C(F)(F)Oc1ccc(-c2ccccn2)c2oc(N3CC4CC(C3)N4)nc12` [Example 289, 1-((2-(3,6-Diazabicyclo[3.1.1]heptan-3-yl)-7-(pyridin-2-yl)benzo[d]oxazol-4-yl)oxy)-1,1-difluoro-2-methylpropan-2-ol], the IC50 is less than 100 nM.

`CC(C)(O)C(F)(F)Oc1ccc(-c2ncco2)c2oc(N3CC4CC(C3)N4)nc12` [Example 290, 1-((2-(3,6-Diazabicyclo[3.1.1]heptan-3-yl)-7-(oxazol-2-yl)benzo[d]oxazol-4-yl)oxy)-1,1-difluoro-2-methylpropan-2-ol]: the IC50 is less than 100 nM.

`CC(C)(O)c1cc(-c2cscn2)c2oc(N3CC4CCC(C3)N4)nc2c1OC(F)(F)F` [Example 291, 2-(2-(3,8-Diazabicyclo[3.2.1]octan-3-yl)-7-(thiazol-4-yl)-4-(trifluoromethoxy)benzo[d]oxazol-5-yl)propan-2-ol]: the IC50 was less than 100 nM. With `OC(c1cc(-c2nccs2)c2oc(N3CC4CC(C3)N4)nc2c1OC(F)(F)F)C(F)F` (centres unmarked) [Example 292, 1-(2-(3,6-Diazabicyclo[3.1.1]heptan-3-yl)-7-(thiazol-2-yl)-4-(trifluoromethoxy)benzo[d]oxazol-5-yl)-2,2-difluoroethan-1-ol] the figure was less than 100 nM; with `OC(c1cc(-c2nccs2)c2oc(N3CC4CC(C3)N4)nc2c1OC(F)(F)F)C(F)F` (centres unmarked) [Example 293, 1-(2-(3,6-Diazabicyclo[3.1.1]heptan-3-yl)-7-(thiazol-2-yl)-4-(trifluoromethoxy)benzo[d]oxazol-5-yl)-2,2-difluoroethan-1-ol], less than 100 nM. As for `CC(C)(O)CC(F)(F)Oc1ccc(-c2nccs2)c2oc(N3CC4CC(C3)N4)nc12` [Example 295, 4-((2-(3,6-Diazabicyclo[3.1.1]heptan-3-yl)-7-(thiazol-2-yl)benzo[d]oxazol-4-yl)oxy)-4,4-difluoro-2-methylbutan-2-ol], the IC50 was less than 100 nM. Consider `CC(O)(c1ccc(-c2nccs2)c2oc(N3CC4CC(C3)N4)nc12)C(F)F` (centres unmarked) [Example 296, 2-(2-(3,6-Diazabicyclo[3.1.1]heptan-3-yl)-7-(thiazol-2-yl)benzo[d]oxazol-4-yl)-1,1-difluoropropan-2-ol], for which the IC50 is less than 100 nM. As for `CC(O)(c1ccc(-c2nccs2)c2oc(N3CC4CC(C3)N4)nc12)C(F)F` (centres unmarked) [Example 297, 2-(2-(3,6-Diazabicyclo[3.1.1]heptan-3-yl)-7-(thiazol-2-yl)benzo[d]oxazol-4-yl)-1,1-difluoropropan-2-ol], the IC50 is less than 100 nM. Take `COC(C)(C)c1cc(-c2cscn2)c2oc(N3CC4CCC(C3)N4)nc2c1OC(F)(F)F` [Example 298, 2-(3,8-Diazabicyclo[3.2.1]octan-3-yl)-5-(2-methoxypropan-2-yl)-7-(thiazol-4-yl)-4-(trifluoromethoxy)benzo[d]oxazole]: the IC50 is less than 100 nM. For the compound `OC1(c2cc(-c3cscn3)c3oc(N4CC5CC(C4)N5)nc3c2OC(F)(F)F)CC1` [Example 299, 1-(2-(3,6-Diazabicyclo[3.1.1]heptan-3-yl)-7-(thiazol-4-yl)-4-(trifluoromethoxy)benzo[d]oxazol-5-yl)cyclopropan-1-ol], the IC50 is less than 100 nM.

In the case of `OC(c1cc(-c2cscn2)c2oc(N3CC4CC(C3)N4)nc2c1OC(F)(F)F)C(F)F` (centres unmarked) [Example 300, 1-(2-(3,6-Diazabicyclo[3.1.1]heptan-3-yl)-7-(thiazol-4-yl)-4-(trifluoromethoxy)benzo[d]oxazol-5-yl)-2,2-difluoroethan-1-ol], the IC50 was less than 100 nM. For `OC(c1cc(-c2cscn2)c2oc(N3CC4CC(C3)N4)nc2c1OC(F)(F)F)C(F)F` (centres unmarked) [Example 301, 1-(2-(3,6-Diazabicyclo[3.1.1]heptan-3-yl)-7-(thiazol-4-yl)-4-(trifluoromethoxy)benzo[d]oxazol-5-yl)-2,2-difluoroethan-1-ol], the IC50 was less than 100 nM. For the compound `OC(c1cc(-c2cscn2)c2oc(N3CC4CCC(C3)N4)nc2c1OC(F)(F)F)C(F)F` (centres unmarked) [Example 302, 1-(2-(3,8-Diazabicyclo[3.2.1]octan-3-yl)-7-(thiazol-4-yl)-4-(trifluoromethoxy)benzo[d]oxazol-5-yl)-2,2-difluoroethan-1-ol], the IC50 is less than 100 nM. For `OC(c1cc(-c2cscn2)c2oc(N3CC4CCC(C3)N4)nc2c1OC(F)(F)F)C(F)F` (centres unmarked) [Example 303, 1-(2-(3,8-Diazabicyclo[3.2.1]octan-3-yl)-7-(thiazol-4-yl)-4-(trifluoromethoxy)benzo[d]oxazol-5-yl)-2,2-difluoroethan-1-ol], the IC50 is less than 100 nM. With `OC1CCC(Oc2ccc(-c3nccs3)c3oc(N4CC5CC(C4)N5)nc23)CC1` (centres unmarked) [Example 305, 4-((2-(3,6-Diazabicyclo[3.1.1]heptan-3-yl)-7-(thiazol-2-yl)benzo[d]oxazol-4-yl)oxy)cyclohexan-1-ol] the figure was less than 100 nM; with `CC(C)(O)C(F)(F)Oc1ccc(-c2cscn2)c2oc(N3CC4CC(C3)N4)nc12` [Example 307, 1-((2-(3,6-Diazabicyclo[3.1.1]heptan-3-yl)-7-(thiazol-4-yl)benzo[d]oxazol-4-yl)oxy)-1,1-difluoro-2-methylpropan-2-ol], less than 100 nM; with `CC(C)(O)C(F)(F)Oc1ccc(-c2cscn2)c2oc(N3CC4CCC(C3)N4)nc12` [Example 308, 1-((2-(3,8-Diazabicyclo[3.2.1]octan-3-yl)-7-(thiazol-4-yl)benzo[d]oxazol-4-yl)oxy)-1,1-difluoro-2-methylpropan-2-ol], less than 100 nM. For `CC(O)C(F)(F)Oc1ccc(-c2cscn2)c2oc(N3CC4CC(C3)N4)nc12` (centres unmarked) [Example 309, 1-((2-(3,6-Diazabicyclo[3.1.1]heptan-3-yl)-7-(thiazol-4-yl)benzo[d]oxazol-4-yl)oxy)-1,1-difluoropropan-2-ol], the IC50 was less than 100 nM. For the compound `CC(O)C(F)(F)Oc1ccc(-c2cscn2)c2oc(N3CC4CCC(C3)N4)nc12` (centres unmarked) [Example 310, 1-((2-(3,8-Diazabicyclo[3.2.1]octan-3-yl)-7-(thiazol-4-yl)benzo[d]oxazol-4-yl)oxy)-1,1-difluoropropan-2-ol], the IC50 is less than 100 nM. In the case of `OCC(F)(F)Oc1ccc(-c2cscn2)c2oc(N3CC4CC(C3)N4)nc12` [Example 311, 2-((2-(3,6-Diazabicyclo[3.1.1]heptan-3-yl)-7-(thiazol-4-yl)benzo[d]oxazol-4-yl)oxy)-2,2-difluoroethan-1-ol], the IC50 is less than 100 nM.

With `OCC(F)(F)Oc1ccc(-c2cscn2)c2oc(N3CC4CCC(C3)N4)nc12` [Example 312, 2-((2-(3,8-Diazabicyclo[3.2.1]octan-3-yl)-7-(thiazol-4-yl)benzo[d]oxazol-4-yl)oxy)-2,2-difluoroethan-1-ol], the IC50 was less than 100 nM.

With `CC(C)(O)C(Oc1ccc(-c2nccs2)c2oc(N3CC4CC(C3)N4)nc12)C(F)(F)F` (centres unmarked) [Example 313, 3-((2-(3,6-Diazabicyclo[3.1.1]heptan-3-yl)-7-(thiazol-2-yl)benzo[d]oxazol-4-yl)oxy)-4,4,4-trifluoro-2-methylbutan-2-ol], the IC50 was less than 100 nM.

(Values after patent US10669283B2, “Compound and pharmacologically acceptable salt thereof” (MEIJI SEIKA PHARMA CO., LTD., priority 2016, dated 2020).)
